{"source": "patent US9669036B2", "about": "“Modulation of reactivation of a latent virus” (priority 2013, dated 2017)", "test_system": "latent HSV-1(F)", "assay_type": "cell-based", "details": "for Significant Activation of Latent HSV / lowest effective concentration: ganglionic organ cultures in medium containing NGF and EGF; for Significant Activation of Latent HSV: three concentrations tested; for lowest effective concentration: activation of latent HSV; for reactivation of HSV in trigeminal ganglia: ganglia harvested 30 days after infection, TSA 400 nM, MS275 or MC1568 10 μM, 20 μM; for accumulation of viral mRNAs with cycloheximide compared with the drug alone / amounts of the LAT and miRNAs in cycloheximide-treated ganglia compared with the drug alone: cycloheximide 150 μg/ml, TSA 400 nM or NSC74859 10 μM", "key": {"[1]": {"details": "NGF+EGF medium, 24 h, CTB 200 μM, 500 μM"}, "[2]": {"details": "medium containing NGF and EGF, 24 h"}}, "data": [{"molecule": "O=C(Nc1ccc2c(O)cc(S(=O)(=O)O)cc2c1)Nc1ccc2c(O)cc(S(=O)(=O)O)cc2c1", "note": "[AMI-1]", "values": [{"measurement": "Significant Activation of Latent HSV", "setting": "24 h after excision", "result": "No"}, {"measurement": "Comments: activation of latent HSV", "setting": "medium containing NGF and EGF, all concentrations tested", "result": "No activation"}]}, {"molecule": "Cn1c(=O)n(-c2ccc(C(C)(C)C#N)cc2)c2c3cc(-c4cnc5ccccc5c4)ccc3ncc21", "note": "[BEZ-235]", "values": [{"measurement": "lowest effective concentration", "setting": "24 h", "result": 40, "unit": "nM lowest effective"}, {"measurement": "Significant Activation of Latent HSV", "setting": "24 h after excision", "result": "Yes"}]}, {"molecule": "CCOc1ccccc1C(=O)Nc1ccc(Cl)c(C(F)(F)F)c1", "note": "[CTB, N-(4-Chloro-3-trifluoromethyl-phenyl)-2-ethoxy-benzamide]", "values": [{"measurement": "decrease of miRNAs and the LAT following exposure to the drug", "setting": "[1]", "result": "approximately 10 fold"}, {"measurement": "increase of all viral mRNAs following exposure to the drug", "setting": "[1]", "result": "approximately 50 fold"}]}, {"molecule": "CS(=O)(=O)N1CCN(Cc2cc3nc(-c4cccc5[nH]ncc45)nc(N4CCOCC4)c3s2)CC1", "note": "[GDC-0941]", "values": [{"measurement": "lowest effective concentration", "setting": "24 h", "result": 10, "unit": "nM lowest effective"}, {"measurement": "Significant Activation of Latent HSV", "setting": "24 h after excision", "result": "Yes"}]}, {"molecule": "Cc1sc2c(c1C)C(c1ccc(Cl)cc1)=N[C@@H](CC(=O)OC(C)(C)C)c1nnc(C)n1-2", "note": "[JQ1]", "values": [{"measurement": "Significant Activation of Latent HSV", "setting": "24 h after excision", "result": "No"}]}, {"molecule": "Cn1cc(/C=C/C(=O)c2cccc(F)c2)cc1/C=C/C(=O)NO", "note": "[MC1568, (E)-3-(4-((E)-3-(3-fluorophenyl)-3-oxoprop-1-enyl)-1-methyl-1H-pyrrol-2-yl)-N-hydroxyacrylamide]", "values": [{"measurement": "reactivation of HSV in trigeminal ganglia", "setting": "[2]", "result": "induced the reactivation of HSV"}]}, {"molecule": "NC1(c2ccc(-c3nc4ccn5c(=O)[nH]nc5c4cc3-c3ccccc3)cc2)CCC1", "note": "[MK-2206]", "values": [{"measurement": "lowest effective concentration", "setting": "24 h", "result": 2.5, "unit": "nM lowest effective"}, {"measurement": "Significant Activation of Latent HSV", "setting": "24 h after excision", "result": "Yes"}]}, {"molecule": "Nc1ccccc1NC(=O)c1ccc(CNC(=O)OCc2cccnc2)cc1", "note": "[MS275, pyridin-3-ylmethyl 4-((2-aminophenyl)carbamoyl)benzylcarbamate]", "values": [{"measurement": "reactivation of HSV in trigeminal ganglia", "setting": "[2]", "result": "induced the reactivation of HSV"}]}, {"molecule": "Cc1ccc(S(=O)(=O)OCC(=O)Nc2ccc(C(=O)O)c(O)c2)cc1", "note": "[NSC74859]", "values": [{"measurement": "accumulation of viral mRNAs with cycloheximide compared with the drug alone", "setting": "NGF+EGF medium, 24 h", "result": "consistently lower"}, {"measurement": "amounts of the LAT and miRNAs in cycloheximide-treated ganglia compared with the drug alone", "setting": "NGF+EGF medium, 24 h", "result": "higher"}, {"measurement": "representatives of all four temporally regulated groups of viral genes (ICP27, TK, VP16, UL41 mRNAs)", "setting": "NGF+EGF medium, 24 h after excision, NSC74859 10 mM and 50 μM", "result": "upregulated"}]}, {"molecule": "Cc1[nH]c2ccccc2c1CCNCc1ccc(/C=C/C(=O)NO)cc1", "note": "[Panobinostat]", "values": [{"measurement": "lowest effective concentration", "setting": "24 h", "result": 0.5, "unit": "nM lowest effective"}]}, {"molecule": "CO[C@H]1C[C@@H]2CC[C@@H](C)[C@@](O)(O2)C(=O)C(=O)N2CCCC[C@H]2C(=O)O[C@H]([C@H](C)C[C@@H]2CC[C@@H](O)[C@H](OC)C2)CC(=O)[C@H](C)/C=C(\\C)[C@@H](O)[C@@H](OC)C(=O)[C@H](C)C[C@H](C)/C=C/C=C/C=C/1C", "note": "[Rapamycin]", "values": [{"measurement": "lowest effective concentration", "setting": "24 h", "result": 1, "unit": "nM lowest effective"}]}, {"molecule": "CC(/C=C/C(=O)NO)=C\\[C@@H](C)C(=O)c1ccc(N(C)C)cc1", "note": "[TSA, Trichostatin A]", "values": [{"measurement": "accumulation of viral mRNAs with cycloheximide compared with the drug alone", "setting": "NGF+EGF medium, 24 h", "result": "similar"}, {"measurement": "amounts of the LAT and miRNAs in cycloheximide-treated ganglia compared with the drug alone", "setting": "NGF+EGF medium, 24 h", "result": "higher"}, {"measurement": "accumulation of mRNAs relative to freshly excised ganglia", "setting": "NGF+EGF+TSA (400 nM), with or without cycloheximide 150 μg/ml, 24 h", "result": 10, "unit": "fold"}, {"measurement": "reactivation of HSV in trigeminal ganglia", "setting": "[2]", "result": "induced the reactivation of HSV"}]}, {"molecule": "C[C@@H]1CCN(C(=O)CC#N)C[C@@H]1N(C)c1ncnc2[nH]ccc12", "note": "[Tofacitinib]", "values": [{"measurement": "Significant Activation of Latent HSV", "setting": "24 h after excision", "result": "No"}]}, {"molecule": "COc1cc2c(NC3CCN(C(C)C)CC3)nc(C3CCCCC3)nc2cc1OCCCN1CCCC1", "note": "[UNC0638]", "values": [{"measurement": "Significant Activation of Latent HSV", "setting": "24 h after excision", "result": "No"}]}, {"molecule": "COc1cc(/C=C/C(=O)CC(=O)/C=C/c2ccc(O)c(OC)c2)ccc1O", "note": "[curcumin]", "values": [{"measurement": "reactivation of HSV and degradation of the LAT and miRNAs", "setting": "curcumin 100 μM, 300 μM, 24 h, independent of medium (NGF+EGF or antibody to NGF)", "result": "blocked"}, {"measurement": "accumulation of the LAT", "setting": "curcumin at the higher concentration (300 μM)", "result": "suppressed"}, {"measurement": "accumulation of small amounts of mRNAs normally detected at the time of excision of the ganglia", "setting": "medium containing antibody to NGF, compared with freshly excised ganglia", "result": "suppressed"}]}]}
